Data as given in US20040014047A1, “Antisense modulation of LIM domain kinase 1 expression” (Isis Pharmaceuticals Inc., priority 2002, published 2004).
Strand notation (5' to 3'): a small letter for the sugar, then the base; units joined by * are phosphorothioate-linked, units joined directly phosphodiester-linked; [ ] holds rarer units or linkages, { } end groups; capitals alone tell only the bases. e = 2'-O-(2-methoxyethyl) (MOE); [5mC] = 5-methylcytosine; d = 2'-deoxy (DNA)

Tested on: human LIM domain kinase 1 mRNA
Assay: Antisense inhibition of human LIM domain kinase 1 mRNA levels, quantitative real-time PCR, A549 cells (screen)
Type: cell-based
Settings: for % INHIB (inhibition of human LIM domain kinase 1 mRNA levels): quantitative real-time PCR, averages from two experiments, screening concentration not given (50 nM to 300 nM used herein); for inhibition of human LIM domain kinase 1 expression (text summary of Table 1): real-time PCR, bound stated
Experimental: When cells reached 70% confluency, they were treated with oligonucleotide. […] Cells were harvested 16-24 hours after oligonucleotide treatment.
Vacuum was applied for 1 minute.
PCR reagents were obtained from Invitrogen Corporation, (Carlsbad, Calif.).
Total RNA is quantified using RiboGreenTM RNA quantification reagent from Molecular Probes.
Probes and primers to human LIM domain kinase 1 were designed to hybridize to a human LIM domain kinase 1 sequence, using published sequence information (GenBank accession number D26309.1, incorporated herein as SEQ ID NO:4). For human LIM domain kinase 1 the PCR primers were: forward primer: […] (SEQ ID NO: 5) reverse primer: […] (SEQ ID NO: 6) and the PCR probe was: FAM-[…]-TAMRA (SEQ ID NO: 7) where FAM is the fluorescent dye and TAMRA is the quencher dye.
All cytidine residues are 5-methylcytidines. […] Data are averages from two experiments in which A549 cells were treated with the oligonucleotides of the present invention. […] If present, “N.D.” indicates “no data”.

206228 (antisense eA*e[5mC]*eT*eG*e[5mC]*d[5mC]*dT*d[5mC]*dT*d[5mC]*dG*dG*dG*dT*dT*e[5mC]*eA*eA*eG*e[5mC]) [compound 206228]
% INHIB (inhibition of human LIM domain kinase 1 mRNA levels): 69%

aagcttcacagttttaatac (eA*eA*eG*e[5mC]*eT*dT*d[5mC]*dA*d[5mC]*dA*dG*dT*dT*dT*dT*eA*eA*eT*eA*e[5mC]; antisense) [ISIS 206217]
inhibition of human LIM domain kinase 1 expression (text summary of Table 1): at least 65%

206190 (antisense eG*eA*e[5mC]*eA*eG*dG*dT*dT*dT*d[5mC]*dT*dG*d[5mC]*d[5mC]*dG*eG*eG*e[5mC]*eA*eG) [compound 206190]
% INHIB (inhibition of human LIM domain kinase 1 mRNA levels): 88%

agggcctggaggtactggcc (eA*eG*eG*eG*e[5mC]*d[5mC]*dT*dG*dG*dA*dG*dG*dT*dA*d[5mC]*eT*eG*eG*e[5mC]*e[5mC]; antisense) [ISIS 206171]
inhibition of human LIM domain kinase 1 expression (text summary of Table 1): at least 65%

206220 (antisense e[5mC]*eA*eA*eA*eG*dT*dG*d[5mC]*dA*d[5mC]*dT*dG*dA*dG*dA*eA*eA*eG*e[5mC]*eT) [compound 206220]
% INHIB (inhibition of human LIM domain kinase 1 mRNA levels): 59%

ctctgggccacggcagagag (e[5mC]*eT*e[5mC]*eT*eG*dG*dG*d[5mC]*d[5mC]*dA*d[5mC]*dG*dG*d[5mC]*dA*eG*eA*eG*eA*eG; antisense) [ISIS 206209]
inhibition of human LIM domain kinase 1 expression (text summary of Table 1): at least 65%

206222 (antisense eG*eG*eT*eG*eG*dG*dT*d[5mC]*d[5mC]*d[5mC]*dA*d[5mC]*d[5mC]*dT*d[5mC]*e[5mC]*e[5mC]*eT*eA*eA) [compound 206222]
% INHIB (inhibition of human LIM domain kinase 1 mRNA levels): 63%

tggatggaattcttcacatc (eT*eG*eG*eA*eT*dG*dG*dA*dA*dT*dT*d[5mC]*dT*dT*d[5mC]*eA*e[5mC]*eA*eT*e[5mC]; antisense) [ISIS 206183]
inhibition of human LIM domain kinase 1 expression (text summary of Table 1): at least 65%

gtttctgccgggcagagctg (eG*eT*eT*eT*e[5mC]*dT*dG*d[5mC]*d[5mC]*dG*dG*dG*d[5mC]*dA*dG*eA*eG*e[5mC]*eT*eG; antisense) [ISIS 206189]
inhibition of human LIM domain kinase 1 expression (text summary of Table 1): at least 65%

206210 (antisense e[5mC]*e[5mC]*eT*e[5mC]*e[5mC]*dA*dG*dG*dG*dA*dG*d[5mC]*dT*dA*dT*eG*eG*eA*e[5mC]*e[5mC]) [compound 206210]
% INHIB (inhibition of human LIM domain kinase 1 mRNA levels): 83%

206193 (antisense eA*eG*eG*eT*e[5mC]*d[5mC]*dT*dT*dG*d[5mC]*dG*d[5mC]*dT*dG*dG*eG*eA*eG*eG*e[5mC]) [compound 206193]
% INHIB (inhibition of human LIM domain kinase 1 mRNA levels): 67%

206224 (antisense eG*e[5mC]*eT*eG*e[5mC]*dT*dG*d[5mC]*dA*dG*d[5mC]*d[5mC]*dG*dT*dA*eT*eG*eA*eA*eA) [compound 206224]
% INHIB (inhibition of human LIM domain kinase 1 mRNA levels): 66%

206182 (antisense eG*eG*eA*eA*eT*dT*d[5mC]*dT*dT*d[5mC]*dA*d[5mC]*dA*dT*d[5mC]*eT*eG*eG*eG*e[5mC]) [compound 206182]
% INHIB (inhibition of human LIM domain kinase 1 mRNA levels): 86%

206221 (antisense eT*e[5mC]*e[5mC]*e[5mC]*eA*d[5mC]*d[5mC]*dT*d[5mC]*d[5mC]*d[5mC]*dT*dA*dA*dG*eT*e[5mC]*eA*eT*eG) [compound 206221]
% INHIB (inhibition of human LIM domain kinase 1 mRNA levels): 17%

206209 (antisense e[5mC]*eT*e[5mC]*eT*eG*dG*dG*d[5mC]*d[5mC]*dA*d[5mC]*dG*dG*d[5mC]*dA*eG*eA*eG*eA*eG) [compound 206209]
% INHIB (inhibition of human LIM domain kinase 1 mRNA levels): 80%

206218 (antisense eT*eG*eA*eG*eA*dA*dA*dG*d[5mC]*dT*dT*d[5mC]*dA*d[5mC]*dA*eG*eT*eT*eT*eT) [compound 206218]
% INHIB (inhibition of human LIM domain kinase 1 mRNA levels): 43%

tcgagggtcagctggagcag (eT*e[5mC]*eG*eA*eG*dG*dG*dT*d[5mC]*dA*dG*d[5mC]*dT*dG*dG*eA*eG*e[5mC]*eA*eG; antisense) [ISIS 206188]
inhibition of human LIM domain kinase 1 expression (text summary of Table 1): at least 65%

gacaggtttctgccgggcag (eG*eA*e[5mC]*eA*eG*dG*dT*dT*dT*d[5mC]*dT*dG*d[5mC]*d[5mC]*dG*eG*eG*e[5mC]*eA*eG; antisense) [ISIS 206190]
inhibition of human LIM domain kinase 1 expression (text summary of Table 1): at least 65%

206203 (antisense eT*eT*eG*eT*eG*dG*dG*dA*dG*dT*dT*dG*dA*dG*dG*eT*e[5mC]*eT*e[5mC]*eG) [compound 206203]
% INHIB (inhibition of human LIM domain kinase 1 mRNA levels): 55%

206200 (antisense e[5mC]*eT*eG*eG*e[5mC]*dT*dG*dT*d[5mC]*d[5mC]*dA*dT*dG*d[5mC]*dT*e[5mC]*eT*eT*eG*eA) [compound 206200]
% INHIB (inhibition of human LIM domain kinase 1 mRNA levels): 76%

206185 (antisense eG*e[5mC]*e[5mC]*eA*eT*dT*dG*dA*dT*dT*dT*d[5mC]*d[5mC]*dA*dA*eG*eA*eT*e[5mC]*e[5mC]) [compound 206185]
% INHIB (inhibition of human LIM domain kinase 1 mRNA levels): 86%

cattcttgttctcgcggacc (e[5mC]*eA*eT*eT*e[5mC]*dT*dT*dG*dT*dT*d[5mC]*dT*d[5mC]*dG*d[5mC]*eG*eG*eA*e[5mC]*e[5mC]; antisense) [ISIS 206204]
inhibition of human LIM domain kinase 1 expression (text summary of Table 1): at least 65%

206231 (antisense eG*e[5mC]*eA*eG*eT*dG*d[5mC]*d[5mC]*d[5mC]*dG*d[5mC]*dT*dG*d[5mC]*dA*eA*eG*eA*eG*e[5mC]) [compound 206231]
% INHIB (inhibition of human LIM domain kinase 1 mRNA levels): 76%

aggtccttgcgctgggaggc (eA*eG*eG*eT*e[5mC]*d[5mC]*dT*dT*dG*d[5mC]*dG*d[5mC]*dT*dG*dG*eG*eA*eG*eG*e[5mC]; antisense) [ISIS 206193]
inhibition of human LIM domain kinase 1 expression (text summary of Table 1): at least 65%

tgtccatgctcttgatgatg (eT*eG*eT*e[5mC]*e[5mC]*dA*dT*dG*d[5mC]*dT*d[5mC]*dT*dT*dG*dA*eT*eG*eA*eT*eG; antisense) [ISIS 206199]
inhibition of human LIM domain kinase 1 expression (text summary of Table 1): at least 65%

tagcgggcccagtagtcctt (eT*eA*eG*e[5mC]*eG*dG*dG*d[5mC]*d[5mC]*d[5mC]*dA*dG*dT*dA*dG*eT*e[5mC]*e[5mC]*eT*eT; antisense) [ISIS 206175]
inhibition of human LIM domain kinase 1 expression (text summary of Table 1): at least 65%

206194 (antisense eG*eA*e[5mC]*e[5mC]*e[5mC]*dA*dG*dG*dT*d[5mC]*d[5mC]*dT*dT*dG*d[5mC]*eG*e[5mC]*eT*eG*eG) [compound 206194]
% INHIB (inhibition of human LIM domain kinase 1 mRNA levels): 41%

206183 (antisense eT*eG*eG*eA*eT*dG*dG*dA*dA*dT*dT*d[5mC]*dT*dT*d[5mC]*eA*e[5mC]*eA*eT*e[5mC]) [compound 206183]
% INHIB (inhibition of human LIM domain kinase 1 mRNA levels): 79%

gtcacaacacctgcaggaga (eG*eT*e[5mC]*eA*e[5mC]*dA*dA*d[5mC]*dA*d[5mC]*d[5mC]*dT*dG*d[5mC]*dA*eG*eG*eA*eG*eA; antisense) [ISIS 206229]
inhibition of human LIM domain kinase 1 expression (text summary of Table 1): at least 65%

aacctcatgcactcgacggg (eA*eA*e[5mC]*e[5mC]*eT*d[5mC]*dA*dT*dG*d[5mC]*dA*d[5mC]*dT*d[5mC]*dG*eA*e[5mC]*eG*eG*eG; antisense) [ISIS 206161]
inhibition of human LIM domain kinase 1 expression (text summary of Table 1): at least 65%
